From patent US20080234337A1, “Preventive and/or Remedy for Hyperkalemia Containing Ep4 Agonist” (ONO PHARMACEUTICAL CO., LTD., priority 2004, published 2008)

Molecular target: T1, EP4 (Cavia porcellus, UniProt Q1HG69)
T1 construct: Tissue samples including submucosal ganglia and mucosa were obtained by removal of myenteric plexus; from tissue; host or cells: guinea pig distal colon (mucosa with submucosal ganglia), mounted in Ussing flux chambers
Assay: Short-circuit current (Isc) measurement of colonic ion transport in guinea pig distal colon tissue using Ussing flux chamber (investigation of EP4 agonistic activity)
Format: cell-based

T1 sequence (Q1HG69 1-487): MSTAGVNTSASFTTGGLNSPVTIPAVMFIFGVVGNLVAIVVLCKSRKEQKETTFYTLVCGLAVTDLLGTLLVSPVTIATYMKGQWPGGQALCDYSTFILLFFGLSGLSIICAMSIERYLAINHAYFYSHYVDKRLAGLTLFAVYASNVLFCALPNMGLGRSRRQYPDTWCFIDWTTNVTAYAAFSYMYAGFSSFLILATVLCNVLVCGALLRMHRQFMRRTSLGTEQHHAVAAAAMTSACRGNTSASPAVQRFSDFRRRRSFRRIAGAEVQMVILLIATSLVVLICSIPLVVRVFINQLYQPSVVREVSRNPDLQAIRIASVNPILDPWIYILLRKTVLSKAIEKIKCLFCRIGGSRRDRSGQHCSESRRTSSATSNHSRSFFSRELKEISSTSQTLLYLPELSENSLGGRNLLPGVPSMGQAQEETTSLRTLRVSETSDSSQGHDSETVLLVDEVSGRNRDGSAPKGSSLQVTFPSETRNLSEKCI

Row | Structure (SMILES) | change of short-circuit current (Isc) (addition of test compound into serosal chamber, concentration not given, FIG. 3) | decrease of short-circuit current (Isc) in presence of EP4 antagonist (PGE2 at low concentration plus EP4 antagonist (not named)) | change of short-circuit current (Isc) (added into serosal chamber at 10^-5 mol/L, tetrodotoxin and piroxicam pretreatment, FIG. 1) | change of short-circuit current (Isc) (added into serosal chamber at 10^-6 mol/L, tetrodotoxin and piroxicam pretreatment, FIG. 1) | change of short-circuit current (Isc) (added into serosal chamber at from 10^-8 to 10^-7 mol/L, tetrodotoxin and piroxicam pretreatment, FIG. 1) | change of short-circuit current (Isc) (low concentration) | potassium secretion (suggested by decrease of Isc) (low concentration)
1 | COCc1cccc(C[C@H](O)/C=C/[C@H]2[C@H](O)CC(=O)[C@@H]2SCCCSCC(=O)O)c1 [compound 1, ({3-[((1R,2S,3R)-3-hydroxy-2-{(1E,3S)-3-hydroxy-4-[3-(methoxymethyl)phenyl]but-1-enyl}-5-oxocyclopentyl)sulfanyl]propyl}sulfanyl)acetic acid] | decrease of short-circuit current (Isc) | – | – | – | – | – | –
2 | CCCCC[C@H](O)/C=C/[C@H]1[C@H](O)CC(=O)[C@@H]1C/C=C\CCCC(=O)O [PGE2] | – | countered by EP4 antagonist | biphasic [Transient phase, Sustained Phase] change of short-circuit current (Isc) | temporary increase of Isc | decrease of Isc | decrease of short-circuit current (Isc) | promoted the potassium secretion
